Where a name gives a salt, the structure may show the parent alone.
Assay: collision cross section in nitrogen (drift tube, single-field); higher = larger gas-phase ion size
[1] = ion type: [M+H], ion source: ESI, ion mode: Positive
[2] = ion type: [M-H], ion source: ESI, ion mode: Negative
[3] = ion type: [M+], ion source: APCI, ion mode: Positive
[4] = ion type: [M+H], ion source: APCI, ion mode: Positive
[5] = ion type: [M+Na], ion source: ESI, ion mode: Positive
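Also: chemical standards at 10 µM analysed by drift tube IMS-QTOF MS in about 3.95 torr nitrogen, mean of duplicate injections differing ≤1%, mass error below 10 ppm.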

Row | Compound | collision cross section in nitrogen [1] [Å²] | collision cross section in nitrogen [2] [Å²] | collision cross section in nitrogen [3] [Å²] | collision cross section in nitrogen [4] [Å²] | collision cross section in nitrogen [5] [Å²]
1 | Oc1c(Cl)cc(Cl)cc1Sc1cc(Cl)cc(Cl)c1O [Bithionol] | 154.7 | 168.8 | – | – | –
2 | c1ccc(Nc2ccccc2)cc1 [Diphenylamine] | 137.8 | – | 133.9 | – | –
3 | O=c1c(-c2ccc(O)cc2)coc2cc(O)cc(O)c12 [Genistein] | 160.3 | 161.6 | – | 160.3 | 171.3
4 | FC(F)(F)c1ccc(OCCCOc2c(Cl)cc(OCC=C(Cl)Cl)cc2Cl)nc1 [Pyridalyl] | 203.8 | – | – | 203 | 215
5 | CCOc1nc2cccc(C(=O)OC(C)OC(=O)OC3CCCCC3)c2n1Cc1ccc(-c2ccccc2-c2nnn[nH]2)cc1 (configuration not stated) [Candesartan cilexetil] | 242.2 | 244 | – | 241.9 | 252.1
6 | CCC(CO)(CO)COCC(CC)(CO)CO [2,2'-(Oxydimethanediyl)bis(2-ethylpropane-1,3-diol)] | – | 158.6 | – | – | 159.6
7 | CC(C)(C(=O)c1cccnc1)c1cccnc1 [Metyrapone] | 156.2 | – | – | – | –
8 | CCCCCCCOC(C)=O [Heptyl acetate] | – | 146.8 | – | – | –
9 | Cc1ccccc1S(=O)(=O)O [Sodium 2-methylbenzenesulfonate] | – | 131.7 | – | – | –
10 | CCNc1nc(NCC)nc(SC)n1 [Simetryn] | 149.5 | – | – | 149.6 | –
11 | CCc1cccc(C)c1N(C(=O)CCl)[C@@H](C)COC [S-Metolachlor] | 160.1 | – | – | 159.5 | 172.5
12 | COc1cccc([C@@]2(O)CCCC[C@@H]2CN(C)C)c1 [Tramadol] | 161.1 | – | – | 160.6 | 171.7
13 | C[N+](C)(C)CC(=O)[O-] [Betaine] | 121.4 | – | – | – | 133.3
14 | CN(C)C(=O)Nc1cccc(OC(=O)NC(C)(C)C)c1 | – | – | – | – | 175
15 | Cc1c(C)c2c(c(C)c1O)CCC(C)(COc1ccc(CC3SC(=O)NC3=O)cc1)O2 (configuration not stated) [Troglitazone] | – | 193.9 | – | – | –
16 | CCCCOCCOC(=O)c1ccccc1C(=O)OCCOCCCC [Bis(2-butoxyethyl) phthalate] | – | – | – | – | 187.5
17 | COP(=O)(OC)C(O)C(Cl)(Cl)Cl (configuration not stated) [Trichlorfon] | – | – | – | – | 151.7
18 | O=C(c1ccccc1)c1ccc(O)cc1O [2,4-Dihydroxybenzophenone] | – | 148.3 | – | – | –
19 | O=C(O)CCN(C1(C(=O)NO)CCCC1)S(=O)(=O)c1ccc(Oc2ccc(F)cc2)cc1 | – | 198.1 | – | – | 211
20 | Nc1ccccc1S(=O)(=O)c1ccccc1 [2-(Phenylsulfonyl)aniline] | – | 151.8 | – | – | –
21 | CC(C)CCCCCCCCCCCCCCC(=O)O [16-Methylheptadecanoic acid] | – | 177.5 | – | – | –

Row | Compound | collision cross section in nitrogen [1] [Å²] | collision cross section in nitrogen [2] [Å²] | collision cross section in nitrogen [3] [Å²] | collision cross section in nitrogen [4] [Å²] | collision cross section in nitrogen [5] [Å²]
22 | O=C1c2ccccc2C(=O)N1CCc1noc(-c2ccc(CN3CCCCCC3)s2)n1 | 213.7 | – | – | 214.3 | 213.7
23 | O=C1CN(N=Cc2ccc(-c3ccc([N+](=O)[O-])cc3)o2)C(=O)N1 [Dantrolene sodium] | – | 180 | – | – | –
24 | O=C(O)COCCN1CCN(C(c2ccccc2)c2ccc(Cl)cc2)CC1 (configuration not stated) [Cetirizine hydrochloride (1:2)] | 200.3 | 195 | – | 200 | 195.6
25 | O=c1n(CCO)c(=O)n(CCO)c(=O)n1CCO [Tris(2-hydroxyethyl) isocyanurate] | – | – | – | – | 159.3
26 | O=C1c2ccccc2C(=O)c2c1ccc1ccccc21 [7,12-Benz(a)anthraquinone] | – | 155.7 | – | – | –
27 | N=c1ccn2c(n1)O[C@H]1[C@H](O)[C@@H](CO)O[C@H]12 [Cyclocytidine] | 143.5 | – | – | 143.1 | 156.7
28 | CCCCOCCOC(=O)COc1cc(Cl)c(Cl)cc1Cl [2,4,5-T-butotyl] | – | – | – | – | 184.2
29 | CN1C(=CC=O)C(C)(C)c2ccccc21 [1,3-Dihydro-1,3,3-trimethyl-2H-indol-2-ylidene acetaldehyde] | 145.1 | – | 143.2 | 144.6 | –
30 | CCCC[C@H]1CN(CC2CCOCC2)C(=O)OC12CCN(C1(C)CCN(C(=O)c3c(C)ncnc3C)CC1)CC2 | 244.1 | 248.6 | 239.9 | 245 | 240.5
31 | CCOP(=S)(OCC)SCn1nnc2ccccc2c1=O [Azinphos-ethyl] | – | – | – | – | 177.9
32 | Cc1cccc(NC(=S)N(C)C)c1 [Methiuron] | 143.3 | 147.1 | – | 143.1 | –
33 | CN(C)c1ccc(C(c2ccccc2)c2ccc(N(C)C)cc2)cc1 [Leucomalachite green] | 198.9 | – | – | 199.9 | –
34 | CC(C)(C)c1ccc(O)c(O)c1 [4-tert-Butylcatechol] | – | 139.3 | – | – | –
35 | CCOc1ccc(N)cc1 [4-Ethoxyaniline] | 139.8 | – | – | – | –
36 | O=C(Nc1ccccc1-c1ccc(Cl)cc1)c1cccnc1Cl [Boscalid] | 175.5 | 177.1 | – | – | –
37 | N#CCC#N [Propanedinitrile] | – | 103.8 | – | – | –
38 | CC(C)CC(C)(c1ccc(O)cc1)c1ccc(O)cc1 [4,4'-(4-Methylpentane-2,2-diyl)diphenol] | – | 175.3 | – | – | –
39 | Cc1cc(C(C)(C)c2ccc(O)c(C)c2)ccc1O [3,3'-Dimethylbisphenol A] | – | 172.9 | – | – | –
40 | CCOC(=O)C(C)Oc1ccc(Oc2nc3ccc(Cl)cc3o2)cc1 (configuration not stated) [Fenoxaprop-ethyl] | 189.3 | – | – | 190.2 | 189.1
41 | CCCCCCCCCCCCCOP(=O)(O)O [Monotridecyl phosphate] | – | 169.9 | – | – | –
42 | CCc1nn(C2CCCCC2)c2cc([C@]3(C#N)CC[C@@H](C(=O)O)CC3)ccc12 | 205.4 | 213.8 | – | 206 | –

Row | Compound | collision cross section in nitrogen [1] [Å²] | collision cross section in nitrogen [2] [Å²] | collision cross section in nitrogen [3] [Å²] | collision cross section in nitrogen [4] [Å²] | collision cross section in nitrogen [5] [Å²]
43 | C=CC(=O)OCCCCCCOC(=O)C=C [1,6-Hexanediol diacrylate] | – | – | – | – | 157.7
44 | O=C(N[C@@H](c1ccccc1)[C@@H]1CCCCN1)c1cccc(C(F)(F)F)c1Cl | 190.4 | 191.6 | – | 190.3 | 200.2
45 | O=C1C[C@@H]2OCC=C3CN4CC[C@]56c7ccccc7N1[C@H]5[C@H]2[C@H]3C[C@H]46 [Strychnine] | 175.2 | – | – | 172 | –
46 | OC[C@H]1O[C@H](O[C@]2(CCl)O[C@H](CCl)[C@@H](O)[C@@H]2O)[C@H](O)[C@@H](O)[C@H]1Cl [Sucralose] | – | 174.5 | – | – | 179.7
47 | CC[C@H](C)[C@@H](C(=O)O)n1sc2ccccc2c1=O | 155.1 | 159.8 | – | – | 169.8
48 | [O-][Cl+3]([O-])([O-])O [Potassium perchlorate] | – | 105.2 | – | – | –
49 | c1ccc(-c2nc3ccccc3[nH]2)cc1 [2-Phenylbenzimidazole] | 143 | 142.6 | – | 142.8 | –
50 | C=CS(=O)(=O)O [Sodium ethenesulfonate] | – | 113.6 | – | – | –
51 | COc1ccc2sc(C(=O)Nc3nnn[nH]3)c(OC(C)C)c2c1 [CI-959] | – | 178.6 | – | – | 190.1
52 | CC(C)OC(=O)C(C)(C)Oc1ccc(C(=O)c2ccc(Cl)cc2)cc1 [Fenofibrate] | 192.8 | – | – | – | 198.4
53 | O=C(NC(=O)c1ccccc1Cl)Nc1ccc(OC(F)(F)F)cc1 [Triflumuron] | – | 179.1 | – | – | 186.6
54 | CCOC(=O)C1=NN(c2ccc(Cl)cc2Cl)C(C)(C(=O)OCC)C1 (configuration not stated) [Mefenpyr-diethyl] | – | – | – | – | 194.8
55 | N#Cc1nn(-c2c(Cl)cc(C(F)(F)F)cc2Cl)c(N)c1S(=O)C(F)(F)F (configuration not stated) [Fipronil] | – | 178.1 | – | – | –
56 | CC(C)NC(=O)c1ccccc1N [2-Amino-N-(1-methylethyl)benzamide] | – | 140.8 | – | – | –
57 | COS(=O)(=O)O [Sodium methyl sulfate] | – | 113.1 | – | – | –
58 | N#C/N=C1\SCCN1Cc1ccc(Cl)nc1 [Thiacloprid] | 159.6 | 154.5 | – | – | 174.2
59 | Cc1ccccc1OP(=O)(Oc1ccccc1)Oc1ccccc1 [Cresyl diphenyl phosphate] | 178 | – | – | 178.3 | 188.4
60 | OC12N=C(c3ccccc3)SC1Cc1cc(Cl)ccc12 (configuration not stated) [HMR1426] | 167.9 | – | – | 167.8 | –
61 | N#Cc1nc(Cl)c(Cl)c(Cl)c1Cl [3,4,5,6-Tetrachloropyridine-2-carbonitrile] | 142.6 | – | – | – | –
62 | O=C(Nc1ccccc1)c1ccccc1I [Benodanil] | 146.3 | 155.4 | – | 146.6 | 161.1
63 | C=CC(=O)OCCn1c(=O)n(CCOC(=O)C=C)c(=O)n(CCOC(=O)C=C)c1=O | – | – | – | – | 184.5
